Results: patent US8697064B2, “Nitrogenated derivatives of pancratistatin” (Pierre Fabre Medicament, priority 2008, dated 2014)
Where “and” joins values, the source holds several entries; their conditions need not be identical. Equal values may be shown once. Where a name gives a salt, the structure may show the parent alone. Read-outs that look alike come from different tables or passages of the source.

Legend:
line HCT 116 (colon) = test: Cytotoxic activity: inhibition of cell proliferation, ATPLite luminescence of residual ATP after 72 hours; type: cell-based, human; conditions: HCT 116 colon tumoral line, 72 hours of incubation, read-out: IC50 (nM) HCT116
Procedure: (§1) The cytotoxic activity of the compounds prepared according to the invention was evaluated by measuring inhibition of the cell proliferation of tumoral lines of human origin, such as line A549 (lung) and line HCT 116 (colon). This activity is expressed by IC50, concentration of the tested product capable of inhibiting 50% of cell proliferation. The method used is luminescence measurement of the residual ATP after 72 hours of incubation using the “ATPLite®” kit marketed by Perkin Elmer, as described in the following publication: “Measurement of cytotoxicity by ATP-based luminescence assay in primary cell cultures and cell lines”. I. A. Cree, P. E. Andreotti, Toxicology in Vitro, 11, 553-6, (1997).
(§2) The concentration values are expressed in nanomolar (nM).

line A549 (lung) = test: as above; type: cell-based, human; conditions: A549 lung tumoral line, 72 hours of incubation
Procedure: as §1, §2

[1] = Solubility measurement in buffer D-PBS 1X (pH = 7.2); conditions: for solubility: pH 7.2, aqueous buffer
Source text: The solvent used is constituted by a buffered solution at pH=7.2 “Dulbecco's Phosphate Buffered Saline” (D-PBS 1X), marketed by Gibco (reference 14190).

| SMILES | IC50 (line HCT 116 (colon); Homo sapiens) [nM] | IC50 (line A549 (lung); Homo sapiens) [nM] | also measured |
| --- | --- | --- | --- |
| [N-]=[N+]=N[C@H]1[C@H](O)[C@@H](O)[C@@H](O)[C@@H]2NC(=O)c3c(cc4c(c3O)OCO4)[C@@H]12 [Compound 5, (1R,2S,3S,4S,4aR,11bR)-1-azido-2,3,4,7-tetrahydroxy-1,2,3,4,4a,5-hexahydro-[1,3]dioxolo[4,5-j]phenanthridin-6(11bH)-one] | 36 | 68 | – |
| N[C@H]1[C@H](O)[C@@H](O)[C@@H](O)[C@@H]2NC(=O)c3c(cc4c(c3O)OCO4)[C@@H]12 [Compound 6, (1R,2S,3R,4S,4aR,11bS)-1-amino-2,3,4,7-tetrahydroxy-1,2,3,4,4a,5-hexahydro-[1,3]dioxolo[4,5-j]phenanthridin-6(11bH)-one] | 35 | 60 | Solubility Buffer D-PBS 1X (pH = 7.2), mass by volume unit ([1]; D-PBS 1X, pH = 7.2): 508 μg/mL; Solubility Buffer D-PBS 1X (pH = 7.2), molarity ([1]; D-PBS 1X, pH = 7.2): 1340 μM |
| CC(C)(C)OC(=O)N[C@H]1[C@H](O)[C@@H](O)[C@@H](O)[C@@H]2NC(=O)c3c(cc4c(c3O)OCO4)[C@@H]12 [Compound 10, tert-butyl(1R,2S,3S,4S,4aR,11bR)-2,3,4,7-tetrahydroxy-6-oxo-1,2,3,4,4a,5,6,11b-octahydro-[1,3]dioxolo[4,5-j]phenanthridin-1-ylcarbamate] | 32 | 270 | – |
| O=C1N[C@H]2[C@H](O)[C@H](O)[C@@H](O)[C@H](NCc3ccccc3)[C@@H]2c2cc3c(c(O)c21)OCO3 [Compound 14, (1R,2S,3R,4S,4aR,11bS)-1-(benzylamino)-2,3,4,7-tetrahydroxy-1,2,3,4,4a,5-hexahydro-[1,3]dioxolo[4,5-j]phenanthridin-6(11bH)-one] | 12 | 22 | – |
| CN(C)[C@H]1[C@H](O)[C@@H](O)[C@@H](O)[C@@H]2NC(=O)c3c(cc4c(c3O)OCO4)[C@H]21 [Compound 16, (1R,2S,3S,4S,4aR,11bR)-1-(dimethylamino)-2,3,4,7-tetrahydroxy-1,2,3,4,4a,5-hexahydro-[1,3]dioxolo[4,5-j]phenanthridin-6(11bH)-one] | 81 | 150 | – |
| O=C1N[C@H]2[C@H](O)[C@H](O)[C@@H](O)[C@H](NC(=O)C3CCCCC3)[C@@H]2c2cc3c(c(O)c21)OCO3 [Compound 21, N-((1R,2S,3R,4S,4aR,11bS)-2,3,4,7-tetrahydroxy-6-oxo-1,2,3,4,4a,5,6,11b-octahydro-[1,3]dioxolo[4,5-j]phenanthridin-1-yl)cyclohexanecarboxamide] | 13 | 46 | – |
| O=C(N[C@H]1[C@H](O)[C@@H](O)[C@@H](O)[C@@H]2NC(=O)c3c(cc4c(c3O)OCO4)[C@@H]12)c1ccccc1 [Compound 22, N-((1R,2S,3R,4S,4aR,11bS)-2,3,4,7-tetrahydroxy-6-oxo-1,2,3,4,4a,5,6,11b-octahydro-[1,3]dioxolo[4,5-j]phenanthridin-1-yl)benzamide] | 4.7 | 8.7 | solubility ([1]; Solubility Buffer D-PBS 1X (pH = 7.2), mass by volume unit, D-PBS 1X, pH = 7.2): 393 µg/mL; solubility ([1]; Solubility Buffer D-PBS 1X (pH = 7.2), molarity, D-PBS 1X, pH = 7.2): 867 µM |
| CN(C)Cc1cccc(C(=O)N[C@H]2[C@H](O)[C@@H](O)[C@@H](O)[C@@H]3NC(=O)c4c(cc5c(c4O)OCO5)[C@@H]23)c1 [Compound 28, 3-((dimethylamino)methyl)-N-((1R,2S,3R,4S,4aR,11bS)-2,3,4,7-tetrahydroxy-6-oxo-1,2,3,4,4a,5,6,11b-octahydro-[1,3]dioxolo[4,5-j]phenanthridin-1-yl)benzamide] | 130 | 110 | – |
| N[C@H]1[C@H](O)[C@@H](O)[C@@H](O)[C@@H]2NC(=O)c3c(cc4c(c3O)OCO4)[C@@H]12 [Hydrochloride of Compound 6, (1R,2S,3R,4S,4aR,11bS)-1-amino-2,3,4,7-tetrahydroxy-1,2,3,4,4a,5-hexahydro-[1,3]dioxolo[4,5-j]phenanthridin-6(11bH)-one] | – | – | Solubility Buffer D-PBS 1X (pH = 7.2), molarity ([1]; D-PBS 1X, pH = 7.2): 3870 μM; Solubility Buffer D-PBS 1X (pH = 7.2), mass by volume unit ([1]; D-PBS 1X, pH = 7.2, listed as compound 6 isolated in the hydrochloride form): 1250 μg/mL |
| O=C1N[C@@H]2C(=C[C@H](O)[C@@H](O)[C@H]2O)c2cc3c(c(O)c21)OCO3 [Narciclasine 1, Narciclasine, reference compound] | – | – | solubility [1]: 401 µM and 131 µg/mL; IC50 (line HCT 116 (colon)): 22 nM; IC50 (line A549 (lung)): 49 nM |
